Measurements: ChEMBL document CHEMBL1136392, “Anilinopyrimidines as novel antituberculosis agents” (Bioorg Med Chem Lett, 2003)
Values after ≈ are worked out from the molar mass of the structure shown. Active and inactive are the calls of the source. The calls are words filed in the database; no cut-off is given here.

Columns and labels:
[1] = Cytotoxic concentration of compound against human small cell lung cancer (NCI-187); type: functional
Breast carcinoma cell = assay: Cytotoxic concentration of compound against human breast cancer cells; type: functional, cell-based
[2] = Cytotoxic concentration of compound against human epidermal carcinoma (KB) cell line; type: functional
[3] = test system: Mycobacterium tuberculosis; assay: Minimum inhibitory concentration against Mycobacterium tuberculosis using microplate alamar blue assay; type: functional
[4] = test system: Mycobacterium tuberculosis; assay: Minimum inhibitory concentration against (MDR-TB) Mycobacterium tuberculosis using microplate alamar blue assay; type: functional
[5] = test system: Mycobacterium tuberculosis; assay: Minimum inhibitory concentration against Mycobacterium tuberculosis using microplate alamar blue assay; Inactive; type: functional, organism-based
Plasmodium falciparum = assay: In vitro activity as 50% reduction in parasite growth against Plasmodium falciparum by [3H]hypoxanthine uptake; type: functional, organism-based

Row | SMILES | MIC [3] [µg/mL] | also measured
1 | Cc1c2ccncc2c(C)c2c1[nH]c1ccccc12 [ELLIPTECINE] | – | IC50 [1]: 0.1 µg/mL (≈ 0.406 µM); IC50 (Breast carcinoma cell): 0.1 µg/mL (≈ 0.406 µM); IC50 [2]: 0.1 µg/mL (≈ 0.406 µM)
2 | NC(=O)c1cnccn1 [PYRAZINAMIDE] | 20 (≈ 162 µM) | –
3 | CCCN(CC1CC1)c1nc(C)cc(N(C)c2c(C)cc(C)cc2C)n1 | 3.12 (≈ 8.85 µM) | –
4 | CC(C)/N=c1\cc2n(-c3ccc(Cl)cc3)c3ccccc3nc-2cc1Nc1ccc(Cl)cc1 [CLOFAZIMINE] | – | MIC [4]: 2 µg/mL (≈ 4.22 µM)
5 | CCN(CC)c1nc(C)cc(N(C)c2ccccc2)n1 | 50 (≈ 185 µM) | –
6 | CCCN(CC1CC1)c1nc(C)cc(Nc2ccccc2)n1 | 12.5 (≈ 42.2 µM) | –
7 | Cc1cc(C)c(Nc2cc(C)nc(Cl)n2)c(C)c1 | – | MIC [5]: inactive
8 | NNC(=O)c1ccncc1 [ISONIAZID] | 0.04 (≈ 0.292 µM) | –
9 | CCCN(CC1CC1)c1nc(C)cc(N(C)c2ccccc2)n1 | 12.5 (≈ 40.3 µM) | –
10 | Cc1cc(Nc2ccccc2)nc(Cl)n1 | 50 (≈ 228 µM) | –
11 | CCN(CC)c1nc(C)cc(Nc2ccccc2)n1 | 25 (≈ 97.5 µM) | –
12 | NC[C@H]1O[C@H](O[C@H]2[C@H](O)[C@@H](O[C@H]3O[C@H](CO)[C@@H](O)[C@H](N)[C@H]3O)[C@H](N)C[C@@H]2N)[C@H](O)[C@@H](O)[C@@H]1O.O=S(=O)(O)O [KANAMYCIN SULFATE] | 5 | –
13 | C[C@@H]1CC[C@H]2[C@@H](C)C(=O)O[C@@H]3O[C@@]4(C)CC[C@@H]1[C@]32OO4 [ARTEMISININ] | – | IC50 (Plasmodium falciparum): 0.001 µg/mL (≈ 0.00354 µM)
